Patent US11214625B2, “Application of PCSK9 inhibitors in the preparation of drugs for the treatment of inflammatory immune diseases” (priority 2015, dated 2022)
“Also recorded” adds a separate entry of the source.

B1: PCSK9 monoclonal antibody: PCSK9 monoclonal antibody used for Examples 6 and 7 is Evolocumab; SEQ ID NO:3-6 (antibody, chains of the INN, looked up, V domains shown)
VH: EVQLVQSGAEVKKPGASVKVSCKASGYTLTSYGISWVRQAPGQGLEWMGWVSFYNGNTNYAQKLQGRGTMTTDPSTSTAYMELRSLRSDDTAVYYCARGYGMDVWGQGTTVTVSS
VL: ESALTQPASVSGSPGQSITISCTGTSSDVGGYNSVSWYQQHPGKAPKLMIYEVSNRPSGVSNRFSGSKSGNTASLTISGLQAEDEADYYCNSYTSTSMVFGGGTKLTVL

Experiments:
[1] = tested on: IMQ induced psoriatic lesions in BALB/c mice; assay: External (cream) use on IMQ induced psoriatic lesions of mice; assay type: in vivo; details: for erythema, scales and infiltration in the back of the mice / score of erythema, scales, infiltration and total score: cream 0.01% once daily; for erythema, scales and infiltration in the back of the mice: 7 days pretreatment, then 6 days with IMQ; for score of erythema, scales, infiltration and total score: daily score during 6 days of IMQ; for adverse reaction: external ointment once a day; for efficacy compared between groups: external use (ointment/cream)
Protocol: (§1) (1) 40 SPF female BALB/c mice aged 6-8 weeks were randomly divided into normal control group, model group, PCSK9 inhibitor group and PCSK9 monoclonal antibody group. There were 10 mice for each group. After intraperitoneal injection of pentobarbital sodium 80 mg/kg, the back was shaved with an area of about 2 cm×3 cm. The mice were feed separately for 1 day.
(2) In normal control group, vaseline was applied locally. In model group, small molecule inhibitor group and monoclonal antibody group, 62.5 mg of 5% imiquimod cream was applied on the back every day for 6 consecutive days, and photos were taken and the PASI score was evaluated.
(3) Pretreatment: vaseline was applied on the back skin with mics in normal control group and model group, PCSK9 small molecule inhibitor cream (0.01% concentration) was applied to inhibitor group once daily. And, PCSK9 monoclonal antibody cream (0.01% concentration) was applied to monoclonal antibody group once daily.
(4) After 7 days pretreatment, vaseline was applied on the back skin with mice in normal control group. At the same time, 62.5 mg 5% imiquimod cream was regularly applied daily on the back with mice in model group, small molecule inhibitor group and monoclonal antibody group. PCSK9 small molecule inhibitor cream or PCSK9 monoclonal antibody cream was applied after one hour. For 6 consecutive days, photos were taken and the PASI score was evaluated.

[2] = tested on: IMQ induced psoriasis-like lesions in BALB/c mice; assay: Subcutaneous injection in mice with IMQ induced psoriasis-like skin lesions; assay type: in vivo; details: for adverse reactions / therapeutic effect compared between groups: subcutaneous injection; for erythema, scales and infiltration in the back coating area: subcutaneous on first day (inhibitor 8 mg/kg, antibody 10 mg/kg), after 6 days of IMQ; for score of erythema, scales, infiltration and total score: subcutaneous, daily scoring during 6 days of IMQ
Protocol: as §1, with “The PCSK9 monoclonal antibody used for this example is Evolocumab. 40 SPF” for “(1) 40 SPF”, “group, PCSK9 small molecule inhibitor group” for “group, PCSK9 inhibitor group”
(1) In normal control group, Vaseline was applied locally. In model group, inhibitor group and monoclonal antibody group, 62.5 mg of 5% imiquimod cream was applied on the back every day for 6 consecutive days, photos were taken and the PASI score was evaluated.
(2) On the first day, normal saline was subcutaneously administrated to normal control group and model group, PCSK9 small molecule inhibitor was subcutaneously administrated (8 mg/kg, Purchased from Selleck Inc.) to inhibitor group, and PCSK9 monoclonal antibody was subcutaneously administrated to monoclonal antibody group (10 mg/kg, Purchased from abcam Inc.)

[3] = tested on: CD4 T cells isolated from peripheral blood of patients with psoriasis, eczema and urticaria; assay: Effect of PCSK9 protein on cytokine secretion of peripheral blood CD4+ T cells (ELISA); assay type: cell-based, human
Protocol: Materials: peripheral blood of 10 cases of psoriasis, 10 cases of eczema, 10 cases of urticaria, and 10 cases of normal people. ELISA kit was purchased from Raybiotech
After PBMC was isolated by Ficoll-Hypaque from human peripheral blood by density gradient centrifugation, washed with 10 times volume 1×BD beads buffer. Then 50 ul BD IMag TM CD4 beads were added to each […]. The beads were mixed well and incubated at room temperature for 30 minutes. 1 ml 1×BD magnetic bead buffer solution was added, and the cells were transferred to the round bottom tube and placed in the magnetic frame for 8 to 10 minutes. And then the supernatant was discarded and removed the test tube from the magnetic field. After resuspension of cells attached to tube wall with 1 ml 1×BD magnetic bead buffer, the tubes were placed in magnetic field for 2-4 min again. The supernatant was discarded removed it out of the magnetic field, resuspended the cells and placed the tube in the magnetic field for 2-4 min. The cells obtained from the […] can be used in subsequent experiments. BD IMag TM CD4 separation system was purchased from BD Biosciences Company.
The supernatant was collected after cell culture under different conditions. IFN-Gamma represented TH1 type cytokines, IL-4 represented TH2 type cytokines, and IL-17 represented TH17 cytokines. The detection of IFN-Gamma, IL-4, IL-17 was conducted by ELISA.

Molecule	erythema, scales and infiltration in the back of the mice [1]	score of erythema, scales, infiltration and total score [1]	adverse reaction [1]	efficacy compared between groups [1]	adverse reactions [2]	therapeutic effect compared between groups [2]	erythema, scales and infiltration in the back coating area [2]	score of erythema, scales, infiltration and total score [2]	secretion of IL-17, IL-2 and IFN-Gamma by CD4 T cells ([3]; CD4 T cells of patients with psoriasis, eczema and urticaria, ELISA of supernatant)	expression of NFkb in CD4 T cells ([3]; especially in psoriatic patients)
O=C(c1ccc(-n2nnc3cccnc32)cc1)N(c1ncccc1Cl)C1CCCNC1 (stereo not drawn) [PCSK9 small molecule inhibitor]	only slight erythema, scales and infiltration	significantly lower than that in PCSK9 monoclonal antibody group; also recorded: significantly reduce	no obvious adverse reaction	better than that of PCSK9 monoclonal antibody group; also recorded: significantly better than that of control group	no obvious adverse reactions	better than that of PCSK9 monoclonal antibody group; also recorded: significantly better than that of control group	only mild erythema, scales and infiltration	significantly lower than that of PCSK9 monoclonal antibody group; also recorded: reduce	–	–
PCSK9 protein: PCSK9 protein added to CD4 T cells of patients	–	–	–	–	–	–	–	–	significantly promote	increased
B1	only slight erythema, scales and infiltration	significantly reduce	no obvious adverse reaction	significantly better than that of control group	no obvious adverse reactions	significantly better than that of control group	only mild erythema, scales and infiltration	reduce	–	–
